No end group written: not given here.
How the values were obtained:
[1] = target: T1, CD10 (Homo sapiens, UniProt P08473); assay: Degradation of 125I-labeled BCM by CD10; format: in vitro ADME
Method: Figure 1 Effect of BCM on spleen cells and degradation of BCM by CD10. (A) Effect of BCM on subpopulations of spleen cells. Spleen cells of BALB/c mice were treated with BCM (0.1 μg/mL) for 48 h. Differentiation markers were examined by ELISA. (B) Effect of CD10 on degradation of BCM. ^125I-labeled BCM (50 μg) was incubated with CD10 for 16 h. Intact BCM bound to anti-BCM antibody and degraded peptides were separated with electrophoresis and detected by autoradiography. […] (E) Time course of degradation of BCM by CD10. ^125I-labeled BCM (50 μg) was incubated with CD10 (60 μg) and TOP (1 μM). (F) Effect of degraded BCM on subset of spleen cells. Error bar, standard deviation from three independent trials. BCM, β-casomorphin-7; cluster of differentiation; ELISA, enzyme-linked immunosorbent assay; Treg, regulatory T cell; tyr-pro, 1st and 2nd amino acids of BCM; Ab, anti-BCM antibody; TOP, thiorphan.
The N-terminal tyrosine of BCM was labeled with ^125I, and then treated with CD10, followed by treatment with an anti-BCM antibody and electrophoresis in a 15–25% polyacrylamide gel. […] It is considered that a short fragment of tyr-pro at the N-terminal of ^125I-labeled BCM was cleaved. […] In contrast, no decrease in intact BCM was observed when it was additionally treated with TOP. Of note, the CD10 degradation product of BCM had no effect on the lymphocyte subset (Figure 1F).
BCM was purchased from Sigma. Di-amino acid peptide (tyr-pro; 1st and 2nd amino acids of BCM) was synthesized by Peptide Institute Inc. (Ibaraki, Japan). BCM and the tyr-pro peptide were labeled by chloramine-T method with ^125I (J-RAM, Tokyo, Japan) using Pierce™ iodination beads (Thermo Fisher). Labeled BCM was incubated with CD10 in neutral peptidase assay buffer (40 mM Tris-HCl pH 7.1, 4 mM MgCl2, 0.5 mM ZnCl2) for 16 h. Thereafter, the solution was incubated with anti-BCM antibody (Abnova, Taipei City, Taiwan) at 37 °C for 2 h. […] The radioactivity of the solution was also measured by a fluid scintillation counter (LSC-8000, Hitachi, Tokyo, Japan).

[2] = cited from earlier work
Source text: BCM also acts on the immune system. […] Conversely, BCM suppresses lymphocyte proliferation at low concentrations, but promotes it at high concentrations above 10^−7 M [18] by activating the T cell helper (Th)-2 pathway, which induces an inflammatory response in the gut. […] Therefore, under such physiological conditions, BCM presents only in low concentrations and might suppress the immune syst ... || The CD10 that we examined in this study has various alternative names, including membrane metalloendopeptidase, common acute lymphocytic leukemia antigen, neprilysin, neutral endopeptidase, enkephalinase, and atriopeptidase [NCBI, OMIM]. CD10 is known to degrade short peptides such as natriuretic peptides, angiotensin II, bradykinin, apelins, substance P, and adrenomedullin [38]. CD10 expression is widespread in the intestinal mucosa. Incubation of BCM with brush border of the intestinal mucosa degrades 95% of BCM in 24 h.

[3] = target: T1, CD10; assay: Suppression of CD10-mediated BCM degradation by thiorphan; format: biochemical; conditions: TOP 1 μM in combination with CD10; 125I-labeled BCM 50 μg

T1 sequence (P08473 whole entry, species assumed): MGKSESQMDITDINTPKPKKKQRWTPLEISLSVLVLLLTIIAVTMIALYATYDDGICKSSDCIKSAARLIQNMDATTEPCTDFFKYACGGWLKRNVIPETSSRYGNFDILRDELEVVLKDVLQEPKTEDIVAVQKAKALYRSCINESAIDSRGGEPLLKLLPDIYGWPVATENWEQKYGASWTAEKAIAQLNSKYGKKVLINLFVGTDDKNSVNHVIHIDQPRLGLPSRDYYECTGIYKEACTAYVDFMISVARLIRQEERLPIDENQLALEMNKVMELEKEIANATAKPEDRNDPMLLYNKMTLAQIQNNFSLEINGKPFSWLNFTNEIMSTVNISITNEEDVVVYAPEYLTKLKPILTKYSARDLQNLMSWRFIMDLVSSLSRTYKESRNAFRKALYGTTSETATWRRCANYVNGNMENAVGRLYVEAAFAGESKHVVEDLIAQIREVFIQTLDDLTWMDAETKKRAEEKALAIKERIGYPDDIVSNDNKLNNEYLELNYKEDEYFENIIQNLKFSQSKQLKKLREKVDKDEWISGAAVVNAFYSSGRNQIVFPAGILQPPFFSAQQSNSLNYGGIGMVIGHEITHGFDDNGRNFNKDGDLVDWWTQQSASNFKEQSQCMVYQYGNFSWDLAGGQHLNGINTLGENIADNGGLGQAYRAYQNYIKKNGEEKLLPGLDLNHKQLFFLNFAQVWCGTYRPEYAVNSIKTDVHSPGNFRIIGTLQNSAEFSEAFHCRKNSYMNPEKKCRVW

degradation of BCM by CD10 in presence of TOP [3]	Compound	degraded fragment observed after CD10 treatment ([1]; 125I label on N-terminal tyrosine, position in polyacrylamide gel compared with labeled marker)	change in intact BCM over time with CD10 plus TOP ([1]; CD10 60 μg/mL + TOP 1 μM, time course, 125I-labeled BCM 50 μg)	time after which intact BCM completely disappeared ([1]; CD10 60 μg/mL, time course, 125I-labeled BCM 50 μg, Tris-HCl pH 7.1 buffer, electrophoresis, autoradiography)	fraction of BCM degraded on incubation with brush border of the intestinal mucosa ([2]; 24 h)	fraction of BCM degraded by digestive juice and jejunal brush border [2]
	YPFPGPI [BCM, β-Casomorphin-7]	tyr-pro	no decrease	24 h	95%	95%
completely suppressed	O=C(O)CNC(=O)C(CS)Cc1ccccc1 (stereo not drawn) [TOP, thiorphan]					

— publication PMC8348766, “Enhancement of Anti-Tumoral Immunity by β-Casomorphin-7 Inhibits Cancer Development and Metastasis of Colorectal Cancer” (International Journal of Molecular Sciences, 2021)
